Values quoted from earlier work as cited in PMC7686313, “Phase 1 study of mTORC1/2 inhibitor sapanisertib (TAK-228) in advanced solid tumours, with an expansion phase in renal, endometrial or bladder cancer” (British Journal of Cancer, 2020).

How the values were obtained:
[1] = system: refractory clear-cell RCC; set-up: method as in earlier work; conditions: 10 mg QD; cited from earlier work
RCC = conditions: patients with RCC; cited from earlier work

| Compound | ORR [1] [%] | ORR (RCC) [%] |
| --- | --- | --- |
| CO[C@H]1C[C@@H]2CC[C@@H](C)[C@@](O)(O2)C(=O)C(=O)N2CCCC[C@H]2C(=O)O[C@H]([C@H](C)C[C@@H]2CC[C@@H](OCCO)[C@H](OC)C2)CC(=O)[C@H](C)/C=C(\C)[C@@H](O)[C@@H](OC)C(=O)[C@H](C)C[C@H](C)/C=C/C=C/C=C/1C [everolimus, reference compound] | 13 | – |
| CO[C@H]1C[C@@H]2CC[C@@H](C)[C@@](O)(O2)C(=O)C(=O)N2CCCC[C@H]2C(=O)O[C@H]([C@H](C)C[C@@H]2CC[C@@H](OC(=O)C(C)(CO)CO)[C@H](OC)C2)CC(=O)[C@H](C)/C=C(\C)[C@@H](O)[C@@H](OC)C(=O)[C@H](C)C[C@H](C)/C=C/C=C/C=C/1C [temsirolimus] | – | 8.6 |
